Test results from patent US20140213575A1, “6H-Thieno[3,2-f][1,2,4]triazolo[4,3-a][1,4]diazepines” (BAYER INTELLECTUAL PROPERTY GMBH, priority 2011, published 2014).
Entries after “also recorded” stand apart in the source; their conditions may differ.

Tests used:
[1] = system: MOLM-13 cells; assay: Cellular proliferation assay (alamarBlue) MOLM-13; type: cell-based; conditions: Homo sapiens, 96 hours, read-out: Leukaemia MOLM-13 IC50
Experimental: (§1) In accordance with the invention, the ability of the substances to inhibit the proliferation of various cell lines was determined. Cell viability was determined by means of the alamarBlue® reagent (Invitrogen). […] After incubation overnight at 37° C., the fluorescence values were determined (CI values). […] Then the fluorescence values were determined (CO values).
(§2) The substances were investigated in the cell lines in Table 1, which for example represent the stated indications: […]

[2] = system: plasma proteins; assay: Plasma protein binding by equilibrium dialysis; type: in vitro ADME, mouse
Experimental: The binding of test substances to plasma proteins is determined by equilibrium dialysis by means of the Ht-dialysis apparatus (96-well) made of Teflon and a semipermeable membrane (regenerated cellulose, MWCO 12-14K). This separates 150 μl of each of a plasma side and a buffer side (50 mM phosphate buffer). The test substance is added in 2 concentrations (usually 3 and 0.3 μM) to the plasma side and binds to plasma proteins. The unbound fraction of the test substance passes through the membrane and is distributed on either side until equilibrium is established (after approx. 6-8 h at 37° C.). The substance concentration on the buffer side and the plasma side is determined by LC-MS analysis. For this, both sides are brought by dilution with buffer or plasma to the same matrix (10% plasma) and then precipitated with methanol. The free (unbound) fraction (fu) is calculated from the quotient of the buffer and plasma concentration. Stability tests and recovery tests are run concurrently as controls. In addition, the substance in buffer is dialysed against buffer, to check the nonspecific binding to apparatus and membrane and establishment of equilibrium. Because during incubation the osmotic pressure of the plasma proteins leads to dilution of the plasma (volume shift), this possible error is determined by weighing blank plasma samples and is included in the calculation of fu. Establishment of equilibrium and plasma stability should have a value not lower than 80% and the recovery should be at least 30%. A free fraction of <1% is regarded as high, between 1 and 10% as moderate and >10% as low plasma protein binding.

[3] = system: HeLa-MaTu cells; assay: Cellular proliferation assay (alamarBlue) HeLa-MaTu; type: cell-based; conditions: 96 hours, read-out: Cervix HeLa-MaTu IC50
Experimental: as §1, §2

[4] = system: MOLP-8 cells; assay: Cellular proliferation assay (alamarBlue) MOLP-8; type: cell-based; conditions: Homo sapiens, 120 hours, read-out: Multiple myeloma MOLP-8 IC50
Experimental: as §1, §2

[5] = system: MDA-MB-231 cells; assay: Cellular proliferation assay (alamarBlue) MDA-MB-231; type: cell-based; conditions: Homo sapiens, 96 hours, read-out: Breast MDA-MB-231 IC50
Experimental: as §1, §2

[6] = system: LNCaP cells; assay: Cellular proliferation assay (alamarBlue) LNCaP; type: cell-based; conditions: Homo sapiens, 168 hours, read-out: Prostate LNCaP IC50
Experimental: as §1, §2

[7] = In-vivo tolerability in the mouse; design: species or system female NMRI nude mice; conditions: for Drug-induced deaths (day): 3 animals per group
Experimental: The substances were formulated in NMP/PEG300 (1/9 V/V). They were administered orally, in an amount of 10 ml/kg, once or twice daily for a period of 5 to 7 days to female NMRI nude mice (6-8 weeks old; 3 animals per group). Body weight and mortality of the mice were monitored daily up to the end of the study. Toxicity was defined as follows: ≧10% substance-induced deaths or ≧20% weight loss.

[8] = system: MOLM-13 cells; assay: MOLM-13 acute monocytic leukaemia tumour model; conditions: 70 mg/kg oral daily; significance P<0.05
Experimental: NMRI nude mice were inoculated subcutaneously in the right flank on day 0 with 2×10^6 MOLM-13 cells in 0.1 ml Matrigel. […] Practical example 1 and practical example 2 were dissolved in 40% PEG400, 5% ethanol, 25% Solutol. The substances were administered orally, daily for […] (day 3 to day 14). […] Practical examples 1 and 2 were applied at a daily dose of 200 (highest dose used), 120 or 70 mg/kg.

[9] = system: MCF-7 cells; assay: Cellular proliferation assay (alamarBlue) MCF-7; type: cell-based; conditions: Homo sapiens, MCF7, 96 hours, read-out: Breast MCF-7 IC50
Experimental: as §1, §2

[10] = system: VCaP cells; assay: Cellular proliferation assay (alamarBlue) VCaP; type: cell-based; conditions: Homo sapiens, 168 hours, read-out: Prostate VCaP IC50
Experimental: as §1, §2

[11] = system: B16F10 melanoma; assay: B16F10 melanoma tumour model; conditions: for weight loss: oral, day 2 to day 11
Experimental: (§3) C57BL/6 mice were inoculated on day 0 with 0.5×10^6 cells in 0.1 ml medium, subcutaneously, in the right flank. […] The substances were administered orally for 10 days (day 2 to day 11). […] Practical example 2 was applied at a dose of 160 or 120 mg/kg.

[12] = B16F10 melanoma tumour model; conditions: C57BL/6, mouse, in vivo, po
Experimental: as §3

[13] = Plasma concentrations from in-vivo tests and PK parameters; conditions: mouse; for Plasma concentration: 60 mg/kg p.o.
Experimental: After thawing and shaking, the samples are centrifuged for 20 minutes at 4° C. and approx. 2000×g. An aliquot of the supernatant (approx. 25 μL) is measured by LCMS analysis. If high plasma or tissue levels are expected (>ULOQ, as a rule 5 μM) the precipitated samples are additionally diluted 1:100 with ACN/H2O (80/20, v/v)+internal standard and corresponding aliquots are measured by LCMS. For this, the test substance is added in 5-9 concentrations, corresponding to the determination range of the analytical method, to a control matrix (calibration samples), e.g. 0, 1, 10, 100, 1000, 5000 nM. For this, a portion of solid is weighed and is dissolved in DMSO (as a rule 1 mM stock solution). This stock solution is further diluted 1:10 with DMSO ([…]). Then 1:5 (v/v) ACN+internal standard (soln. A) is added to the calibration samples and processed further as with the plasma samples. The calibration series in solvent takes place similarly to the plasma calibration described. The test substance is in this case prepared in ACN/H2O (50/50, v/v) and then 1:5 (v/v) ACN+internal standard is added to the samples. This series serves for calibration of the diluted samples. The following PK parameters are calculated from these concentration-time profiles obtained: […]
AUC(0-tlast),norm multiplied by the free fraction (fu) of the species investigated.

[14] = system: B16F10 cells; assay: Cellular proliferation assay (alamarBlue) B16F10; type: cell-based; conditions: Mus musculus, B16-F10, 96 hours, read-out: Melanoma B16F10 IC50
Experimental: as §1, §2

[15] = oral 50 mg/kg, QD × 5, twice daily
[16] = oral 100 mg/kg, QD × 5, twice daily
[17] = oral 100 mg/kg, QD × 7, once daily

SMILES: Cc1sc2c(c1C)C(c1ccc(Cl)cc1)=N[C@@H](CC(=O)OC(C)(C)C)c1nnc(C)n1-2 [Example V1, tert-Butyl[(S)-4-(4-chlorophenyl)-2,3,9-trimethyl-6H-thieno[3,2-f][1,2,4]triazolo[4,3-a][1,4]diazepin-6-yl]acetate, reference compound]
- IC50 [1]: 59 nM
- fu ([2]; free fraction of the species investigated (mouse), as used in Table 6): 1.5%
- fraction unbound ([2]; mouse, plasma, free (unbound) fraction, equilibrium dialysis, read-out: Protein binding, given as % fu): 0.015
- IC50 [3]: 107 nM
- IC50 [4]: 63 nM
- IC50 [5]: 86 nM
- IC50 [6]: 63 nM
- maximum body weight loss ([7]; 50 mg/kg twice daily, on day 6): 7%
- highest weight loss ([7]; daily dose of 100 mg/kg for 7 days, on the 9th day): 10%
- MTD ([7]; female, NMRI nude, mouse, in vivo, oral, once daily, read-out: maximum tolerated treatment dose (MTD), single daily treatment): 100 mg/kg
- % maximum body weight change (day) [7, 15]: −7 (6) %
- Remarks (tolerability) [7, 15]: MTD
- Drug-induced deaths (day) [7, 15]: 0/3
- % maximum body weight change (day) [7, 16]: −19 (5) %
- Remarks (tolerability) ([7]; oral 100 mg/kg, QD × 5, twice daily, 100 mg/kg): Not tolerated
- Drug-induced deaths (day) [7, 16]: 2
- % maximum body weight change (day) [7, 17]: −10 (9) %
- Remarks (tolerability) ([7]; oral 100 mg/kg, QD × 7, once daily, 100 mg/kg): tolerated; also recorded: MTD (10% body-
- Drug-induced deaths (day) [7, 17]: 0/3
- activity on tumour growth [8]: biologically active
- IC50 [9]: 148 nM
- IC50 [10]: 37 nM
- weight loss ([11]; 120 mg/kg dose): 2%
- weight loss ([11]; 160 mg/kg dose): 6%
- deaths ([11]; on day 12, in both dose groups): One mouse (out of 12) died
- MTD at 10 days [12]: 55 mg/kg
- Plasma concentration ([13]; 1 h): 2245.8 ng/mL
- Plasma concentration ([13]; 3 h): 1220.2 ng/mL
- Plasma concentration ([13]; 5 h): 587.2 ng/mL
- Plasma concentration ([13]; 7 h): 321.5 ng/mL
- AUC(0-tlast),norm,u ([13]; single oral dose 60 mg/kg, AUCnorm multiplied by fu): 0.002 kg·h/L
- AUC(0-tlast),norm ([13]; single oral dose 60 mg/kg, dose-normalized): 0.12 kg·h/L
- tlast ([13]; single oral dose 60 mg/kg, last time point with measurable plasma concentration): 7.0 h
- IC50 [14]: 67 nM
